Measurements from US12077503B2, “Substituted cyclic amides and their use as herbicides” (FMC CORPORATION, priority 2015, dated 2024).

Experiments:
Test in all cases: Test C preemergence
Assay type in all cases: in vivo
[1] = test system: Galium (catchweed bedstraw, Galium aparine); details: for Plant response rating, Galium: scale 0 to 100, 0 no effect, 100 complete control
Outline: (§1)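 After treatment with surfactant-containing formulations, either preemergence to seeds in loam-sand soil or postemergence to potted seedlings at 2–18 cm, plants were kept 13–15 d in a greenhouse. Observers then compared them with controls and assigned ratings, 0 signifying no effect and 100 complete control.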

[2] = test system: barnyardgrass (Echinochloa crus-galli); details: for Plant response rating, Barnyardgrass: scale 0 to 100, 0 no effect, 100 complete control
Outline: as §1

[3] = test system: blackgrass (Alopecurus myosuroides); details: for Plant response rating, Blackgrass: scale 0 to 100, 0 no effect, 100 complete control
Outline: as §1

corn (Zea mays) = details: for Plant response rating, Corn: scale 0 to 100, 0 no effect, 100 complete control
Outline: as §1

[4] = test system: crabgrass, large (large crabgrass, Digitaria sanguinalis); details: for Plant response rating, Crabgrass, Large: scale 0 to 100, 0 no effect, 100 complete control
Outline: as §1

[5] = test system: foxtail, giant (giant foxtail, Setaria faberii); details: for Plant response rating, Foxtail, Giant: scale 0 to 100, 0 no effect, 100 complete control
Outline: as §1

[6] = test system: johnsongrass (Sorghum halepense); details: for Plant response rating, Johnsongrass: scale 0 to 100, 0 no effect, 100 complete control
Outline: as §1

[7] = test system: lambsquarters (Chenopodium album); details: for Plant response rating, Lambsquarters: scale 0 to 100, 0 no effect, 100 complete control
Outline: as §1

[8] = test system: morningglory (Ipomoea coccinea); details: for Plant response rating, Morningglory: scale 0 to 100, 0 no effect, 100 complete control
Outline: as §1

[9] = test system: oilseed rape (Brassica napus); details: for Plant response rating, Oilseed Rape: scale 0 to 100, 0 no effect, 100 complete control
Outline: as §1

[10] = test system: pigweed (Amaranthus retroflexus); details: for Plant response rating, Pigweed: scale 0 to 100, 0 no effect, 100 complete control
Outline: as §1

[11] = test system: ragweed (common ragweed, Ambrosia elatior); details: for Plant response rating, Ragweed: scale 0 to 100, 0 no effect, 100 complete control
Outline: as §1

[12] = test system: ryegrass, Italian (Italian ryegrass, Lolium multiflorum); details: for Plant response rating, Ryegrass, Italian: scale 0 to 100, 0 no effect, 100 complete control
Outline: as §1

soybean (Glycine max) = details: for Plant response rating, Soybean: scale 0 to 100, 0 no effect, 100 complete control
Outline: as §1

[13] = test system: velvetleaf (Abutilon theophrasti); details: for Plant response rating, Velvetleaf: scale 0 to 100, 0 no effect, 100 complete control
Outline: as §1

[14] = test system: waterhemp (common waterhemp, Amaranthus rudis); details: for Plant response rating, Waterhemp: scale 0 to 100, 0 no effect, 100 complete control
Outline: as §1

[15] = test system: wheat (winter wheat, Triticum aestivum); details: for Plant response rating, Wheat: scale 0 to 100, 0 no effect, 100 complete control
Outline: as §1

[16] = 31 g ai/ha, 0 is no effect, 100 is complete control

O=C1NCC(c2cc(F)cc(C(F)(F)F)c2)C1C(=O)Nc1cccc(F)c1F (centres unmarked) [Compound 488]
Plant response rating (scale of 0 to 100), Galium [1, 16]: 80 | Plant response rating, Galium ([1]; 62 g ai/ha): 85 | Plant response rating, Galium ([1]; 125 g ai/ha): 85 | Plant response rating, Galium ([1]; 250 g ai/ha): 85 | Plant response rating (scale of 0 to 100), Barnyardgrass [2, 16]: 95 | Plant response rating, Barnyardgrass ([2]; 62 g ai/ha): 90 | Plant response rating, Barnyardgrass ([2]; 125 g ai/ha): 95 | Plant response rating, Barnyardgrass ([2]; 250 g ai/ha): 95 | Plant response rating (scale of 0 to 100), Blackgrass [3, 16]: 0 | Plant response rating, Blackgrass ([3]; 62 g ai/ha): 50 | Plant response rating, Blackgrass ([3]; 125 g ai/ha): 90 | Plant response rating, Blackgrass ([3]; 250 g ai/ha): 85 | Plant response rating (scale of 0 to 100), Corn (corn (Zea mays); [16]): 25 | Plant response rating, Corn (corn (Zea mays); 62 g ai/ha): 60 | Plant response rating, Corn (corn (Zea mays); 125 g ai/ha): 70 | Plant response rating, Corn (corn (Zea mays); 250 g ai/ha): 85 | Plant response rating (scale of 0 to 100), Crabgrass, Large [4, 16]: 90 | Plant response rating, Crabgrass, Large ([4]; 62 g ai/ha): 95 | Plant response rating, Crabgrass, Large ([4]; 125 g ai/ha): 95 | Plant response rating, Crabgrass, Large ([4]; 250 g ai/ha): 100 | Plant response rating (scale of 0 to 100), Foxtail, Giant [5, 16]: 85 | Plant response rating, Foxtail, Giant ([5]; 62 g ai/ha): 90 | Plant response rating, Foxtail, Giant ([5]; 125 g ai/ha): 90 | Plant response rating, Foxtail, Giant ([5]; 250 g ai/ha): 95 | Plant response rating (scale of 0 to 100), Johnsongrass [6, 16]: 70 | Plant response rating, Johnsongrass ([6]; 62 g ai/ha): 80 | Plant response rating, Johnsongrass ([6]; 125 g ai/ha): 85 | Plant response rating, Johnsongrass ([6]; 250 g ai/ha): 90 | Plant response rating (scale of 0 to 100), Lambsquarters [7, 16]: 20 | Plant response rating, Lambsquarters ([7]; 62 g ai/ha): 50 | Plant response rating, Lambsquarters ([7]; 125 g ai/ha): 60 | Plant response rating, Lambsquarters ([7]; 250 g ai/ha): 60 | Plant response rating (scale of 0 to 100), Morningglory [8, 16]: 0 | Plant response rating, Morningglory ([8]; 62 g ai/ha): 25 | Plant response rating, Morningglory ([8]; 125 g ai/ha): 55 | Plant response rating, Morningglory ([8]; 250 g ai/ha): 60 | Plant response rating (scale of 0 to 100), Oilseed Rape [9, 16]: 40 | Plant response rating, Oilseed Rape ([9]; 62 g ai/ha): 45 | Plant response rating, Oilseed Rape ([9]; 125 g ai/ha): 85 | Plant response rating, Oilseed Rape ([9]; 250 g ai/ha): 90 | Plant response rating (scale of 0 to 100), Pigweed [10, 16]: 20 | Plant response rating, Pigweed ([10]; 62 g ai/ha): 75 | Plant response rating, Pigweed ([10]; 125 g ai/ha): 70 | Plant response rating, Pigweed ([10]; 250 g ai/ha): 85 | Plant response rating (scale of 0 to 100), Ragweed [11, 16]: 0 | Plant response rating, Ragweed ([11]; 62 g ai/ha): 25 | Plant response rating, Ragweed ([11]; 125 g ai/ha): 40 | Plant response rating, Ragweed ([11]; 250 g ai/ha): 70 | Plant response rating (scale of 0 to 100), Ryegrass, Italian [12, 16]: 5 | Plant response rating, Ryegrass, Italian ([12]; 62 g ai/ha): 35 | Plant response rating, Ryegrass, Italian ([12]; 125 g ai/ha): 70 | Plant response rating, Ryegrass, Italian ([12]; 250 g ai/ha): 65 | Plant response rating (scale of 0 to 100), Soybean (soybean (Glycine max); [16]): 0 | Plant response rating, Soybean (soybean (Glycine max); 62 g ai/ha): 0 | Plant response rating, Soybean (soybean (Glycine max); 125 g ai/ha): 0 | Plant response rating, Soybean (soybean (Glycine max); 250 g ai/ha): 10 | Plant response rating (scale of 0 to 100), Velvetleaf [13, 16]: 0 | Plant response rating, Velvetleaf ([13]; 62 g ai/ha): 0 | Plant response rating, Velvetleaf ([13]; 125 g ai/ha): 10 | Plant response rating, Velvetleaf ([13]; 250 g ai/ha): 20 | Plant response rating (scale of 0 to 100), Waterhemp [14, 16]: 25 | Plant response rating, Waterhemp ([14]; 62 g ai/ha): 40 | Plant response rating, Waterhemp ([14]; 125 g ai/ha): 75 | Plant response rating, Waterhemp ([14]; 250 g ai/ha): 80 | Plant response rating (scale of 0 to 100), Wheat [15, 16]: 35 | Plant response rating, Wheat ([15]; 62 g ai/ha): 35 | Plant response rating, Wheat ([15]; 125 g ai/ha): 85 | Plant response rating, Wheat ([15]; 250 g ai/ha): 90
